Results on 44 compounds are retold here after patent US10533000B2, “Metabotrophic glutamate receptor 5 modulators and methods of use thereof” (Sunovion Pharmaceuticals, Inc., priority 2011, dated 2020).

Usually EC50 stands for the concentration giving half of the maximal effect. Lower therefore signals greater potency.

Structures are written as SMILES.

For this assay, the target named is mGluR5 (Homo sapiens, UniProt P41594). In words: mGluR5 positive allosteric modulator (PAM) functional assay. It is filed as cell-based.
Chain of mGluR5 (P41594 21-1212): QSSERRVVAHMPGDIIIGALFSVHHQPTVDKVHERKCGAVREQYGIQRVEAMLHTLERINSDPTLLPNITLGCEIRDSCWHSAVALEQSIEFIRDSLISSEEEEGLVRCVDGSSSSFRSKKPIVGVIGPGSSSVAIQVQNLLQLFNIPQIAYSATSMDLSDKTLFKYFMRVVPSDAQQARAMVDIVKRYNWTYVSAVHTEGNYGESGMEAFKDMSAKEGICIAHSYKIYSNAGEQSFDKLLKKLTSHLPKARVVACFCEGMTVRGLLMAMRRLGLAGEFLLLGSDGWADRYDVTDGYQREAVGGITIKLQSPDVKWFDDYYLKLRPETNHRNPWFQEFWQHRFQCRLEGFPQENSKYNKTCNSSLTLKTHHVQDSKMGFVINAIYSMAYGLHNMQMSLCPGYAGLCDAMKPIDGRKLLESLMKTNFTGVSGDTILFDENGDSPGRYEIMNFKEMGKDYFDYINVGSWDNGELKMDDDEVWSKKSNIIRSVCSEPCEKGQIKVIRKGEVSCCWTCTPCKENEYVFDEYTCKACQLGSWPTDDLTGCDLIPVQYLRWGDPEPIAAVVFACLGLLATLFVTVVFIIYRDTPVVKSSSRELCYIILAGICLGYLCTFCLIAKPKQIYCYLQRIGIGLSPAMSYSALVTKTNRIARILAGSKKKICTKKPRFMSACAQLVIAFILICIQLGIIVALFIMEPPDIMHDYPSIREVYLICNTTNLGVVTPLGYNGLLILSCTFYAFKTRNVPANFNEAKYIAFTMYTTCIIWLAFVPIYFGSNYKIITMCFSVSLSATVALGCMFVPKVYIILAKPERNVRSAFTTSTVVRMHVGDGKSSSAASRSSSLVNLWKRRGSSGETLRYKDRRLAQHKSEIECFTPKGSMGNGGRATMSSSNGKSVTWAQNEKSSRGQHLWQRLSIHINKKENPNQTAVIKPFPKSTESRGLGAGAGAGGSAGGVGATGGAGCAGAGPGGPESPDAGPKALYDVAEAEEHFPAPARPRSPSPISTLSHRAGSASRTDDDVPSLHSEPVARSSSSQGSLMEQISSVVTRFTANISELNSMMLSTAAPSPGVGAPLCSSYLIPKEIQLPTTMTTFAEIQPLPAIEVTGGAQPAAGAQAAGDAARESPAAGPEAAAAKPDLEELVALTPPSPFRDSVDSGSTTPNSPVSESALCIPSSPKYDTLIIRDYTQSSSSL
Compound `CC[C@@H](C)c1nc(-c2ccc(C#Cc3ccncc3)cc2)no1` (single isomer, unassigned) [Compound 73] had an EC50 of 30 to 100 nM.
In turn, `C(#Cc1ccc(-c2noc(C3CCCN3)n2)nc1)c1ccccc1` (centres unmarked) [Compound 165, 3-(5-(phenylethynyl)pyridin-2-yl)-5-(pyrrolidin-2-yl)-1,2,4-oxadiazole] registered an EC50 of 300 to 1000 nM.
Compound `CCC(C)c1nc(-c2ccc(C#Cc3ccncc3)cn2)no1` (centres unmarked) [Compound 158, 5-(sec-butyl)-3-(5-(pyridin-4-ylethynyl)pyridin-2-yl)-1,2,4-oxadiazole] yielded an EC50 of no more than 30 nM.
`CCC(CC)c1nnc(-c2ccc(C#Cc3cccc(F)c3)cc2)o1` [Compound 4, 2-(4-((3-fluorophenyl)ethynyl)phenyl)-5-(pentan-3-yl)-1,3,4-oxadiazole] showed an EC50 of 30 to 100 nM.
Compound `CCC(C)c1nc(-c2ccc(C#Cc3ccccn3)cc2)no1` (centres unmarked) [Compound 67] returned an EC50 of no more than 30 nM.
Next, `CC(C)(C)c1nc(-c2ccc(C#Cc3cccc(F)c3)cc2)no1` [Compound 27, 5-(tert-butyl)-3-(4-((3-fluorophenyl)ethynyl)phenyl)-1,2,4-oxadiazole]: 100 to 300 nM; `CNCc1nc(-c2ccc(C#Cc3cccc(F)c3)cn2)no1` [Compound 102, 1-(3-(5-((3-fluorophenyl)ethynyl)pyridin-2-yl)-1,2,4-oxadiazol-5-yl)-N-methylmethanamine]: 300 to 1000 nM; `Fc1cccc(C#Cc2ccc(-c3noc(C4COCCN4)n3)nc2)c1` (centres unmarked) [Compound 98]: 30 to 100 nM.
The value for `CN1C(c2nc(-c3ccc(C#Cc4ccccn4)cn3)no2)CCC1(C)C` (centres unmarked) [Compound 153, 3-(5-(pyridin-2-ylethynyl)pyridin-2-yl)-5-(1,5,5-trimethylpyrrolidin-2-yl)-1,2,4-oxadiazole] was 30 to 100 nM.
In turn, `CC[C@@H](C)c1nc(-c2ccc(C#Cc3cccc(F)c3)cc2)no1` (single isomer, unassigned) [Compound 31] returned a concentration giving a half-maximal response (EC50) of 300 to 1000 nM.
The value for `C(#Cc1ccccn1)c1ccc(-c2noc(C3CCCC3)n2)nc1` [Compound 137, 5-cyclopentyl-3-(5-(pyridin-2-ylethynyl)pyridin-2-yl)-1,2,4-oxadiazole] was 30 to 100 nM; that for `CCC(NC)c1nc(-c2ccc(C#Cc3cccc(F)c3)cn2)no1` (centres unmarked) [Compound 115, 1-(3-(5-((3-fluorophenyl)ethynyl)pyridin-2-yl)-1,2,4-oxadiazol-5-yl)-N-methylpropan-1-amine] was 30 to 100 nM.
`Fc1cccc(C#Cc2ccc(-c3noc(C4CCCN4CCC(F)(F)F)n3)nc2)c1` (centres unmarked) [Compound 123, 3-(5-((3-fluorophenyl)ethynyl)pyridin-2-yl)-5-(1-(3,3,3-trifluoropropyl)pyrrolidin-2-yl)-1,2,4-oxadiazole]: the half-maximal effective concentration (EC50) is no more than 30 nM.
As to `C[C@H](c1nc(-c2ccc(C#Cc3cccc(F)c3)cn2)no1)N(C)C` [Compound 105, (R)-1-(3-(5-((3-fluorophenyl)ethynyl)pyridin-2-yl)-1,2,4-oxadiazol-5-yl)-N,N-dimethylethanamine], the half-maximal effective concentration (EC50) fell in the range of 30 to 100 nM.
`CC(C)(C)c1noc(-c2ccc(C#Cc3cccc(F)c3)cc2)n1` [Compound 17, 3-(tert-butyl)-5-(4-((3-fluorophenyl)ethynyl)phenyl)-1,2,4-oxadiazole] returned an EC50 of 300 to 1000 nM.
Take `Fc1cccc(C#Cc2ccc(-c3nnc(C4CCCC4)o3)cc2)c1` [Compound 1, 2-cyclopentyl-5-(4-((3-fluorophenyl)ethynyl)phenyl)-1,3,4-oxadiazole]: the EC50 lay within 300 to 1000 nM.
Next, `CN1CCC1c1nc(-c2ccc(C#Cc3ccccn3)cn2)no1` (centres unmarked) [Compound 150, 5-(1-methylazetidin-2-yl)-3-(5-(pyridin-2-ylethynyl)pyridin-2-yl)-1,2,4-oxadiazole]: 300 to 1000 nM; `CCN1CCCC1c1nc(-c2ccc(C#Cc3cccc(F)c3)cc2)no1` (centres unmarked) [Compound 48, 5-(1-ethylpyrrolidin-2-yl)-3-(4-((3-fluorophenyl)ethynyl)phenyl)-1,2,4-oxadiazole]: 100 to 300 nM.
Consider `CCC(CC)c1nc(-c2ccc(C#Cc3ccccn3)cn2)no1` [Compound 136, 5-(pentan-3-yl)-3-(5-(pyridin-2-ylethynyl)pyridin-2-yl)-1,2,4-oxadiazole], for which the half-maximal effective concentration (EC50) was no more than 30 nM.
The value for `CC(C)NC(C)c1nc(-c2ccc(C#Cc3cccc(F)c3)cn2)no1` (centres unmarked) [Compound 110, N-(1-(3-(5-((3-fluorophenyl)ethynyl)pyridin-2-yl)-1,2,4-oxadiazol-5-yl)ethyl)propan-2-amine] was 30 to 100 nM; that for `COC(C)c1nc(-c2ccc(C#Cc3ccncc3)cc2)no1` (centres unmarked) [Compound 74, 5-(1-methoxyethyl)-3-(4-(pyridin-4-ylethynyl)phenyl)-1,2,4-oxadiazole] was no more than 30 nM; that for `CN1CCCC1(C)c1nc(-c2ccc(C#Cc3cccc(F)c3)cn2)no1` (centres unmarked) [Compound 51, 5-(1,2-dimethylpyrrolidin-2-yl)-3-(5-((3-fluorophenyl)ethynyl)pyridin-2-yl)-1,2,4-oxadiazole] was no more than 30 nM.
The value for `CCC(OC)c1nc(-c2ccc(C#Cc3cccc(F)c3)cc2)no1` (centres unmarked) [Compound 44, 3-(4-((3-fluorophenyl)ethynyl)phenyl)-5-(1-methoxypropyl)-1,2,4-oxadiazole] was 100 to 300 nM.
Consider `CCC(OC)c1nc(-c2ccc(C#Cc3cccc(F)c3)nc2)no1` (centres unmarked) [Compound 85, 3-(6-((3-fluorophenyl)ethynyl)pyridin-3-yl)-5-(1-methoxypropyl)-1,2,4-oxadiazole], for which the 50% effective concentration (EC50) was no more than 30 nM.
In the case of `CCC(c1nc(-c2ccc(C#Cc3cccc(F)c3)cn2)no1)N(C)C` (centres unmarked) [Compound 116, 1-(3-(5-((3-fluorophenyl)ethynyl)pyridin-2-yl)-1,2,4-oxadiazol-5-yl)-N,N-dimethylpropan-1-amine], the concentration for a half-maximal effect (EC50) is no more than 30 nM.
Next, `Fc1cccc(C#Cc2ccc(-c3noc(C4CCCC4)n3)nc2)c1` [Compound 95, 5-cyclopentyl-3-(5-((3-fluorophenyl)ethynyl)pyridin-2-yl)-1,2,4-oxadiazole]: no more than 30 nM; `Clc1cccc(C#Cc2ccc(-c3noc(C4CCCN4)n3)nc2)c1` (centres unmarked) [Compound 166, 3-(5-((3-chlorophenyl)ethynyl)pyridin-2-yl)-5-(pyrrolidin-2-yl)-1,2,4-oxadiazole]: 300 to 1000 nM; `COCCc1nc(-c2ccc(C#Cc3cccc(F)c3)cc2)no1` [Compound 40, 3-(4-((3-fluorophenyl)ethynyl)phenyl)-5-(2-methoxyethyl)-1,2,4-oxadiazole]: 300 to 1000 nM.
Next, `CC[C@H](C)c1nc(-c2ccc(C#Cc3ccncc3)cc2)no1` (single isomer, unassigned) [Compound 72]: 100 to 300 nM.
Next, `CN1CC(F)(F)C[C@@H]1c1nc(-c2ccc(C#Cc3ccccn3)cn2)no1` [Compound 154, (R)-5-(4,4-difluoro-1-methylpyrrolidin-2-yl)-3-(5-(pyridin-2-ylethynyl)pyridin-2-yl)-1,2,4-oxadiazole]: 300 to 1000 nM.
In turn, `C(#Cc1ccccn1)c1ccc(-c2noc(C3CC4CCN3C4)n2)nc1` (centres unmarked) [Compound 174, 5-(1-azabicyclo[2.2.1]heptan-2-yl)-3-(5-(pyridin-2-ylethynyl)pyridin-2-yl)-1,2,4-oxadiazole] came in with an EC50 of 100 to 300 nM.
The value for `COC(C)c1nc(-c2ccc(C#Cc3ccncc3)cn2)no1` (centres unmarked) [Compound 159, 5-(1-methoxyethyl)-3-(5-(pyridin-4-ylethynyl)pyridin-2-yl)-1.2.4-oxadiazole] was 100 to 300 nM; that for `CCOC(=O)NC(CC)c1nc(-c2ccc(C#Cc3ccccn3)cn2)no1` (centres unmarked) [Compound 146, ethyl (1-(3-(5-(pyridin-2-ylethynyl)pyridin-2-yl)-1,2,4-oxadiazol-5-yl)propyl)carbamate] was 100 to 300 nM.
Compound `CC(c1nc(-c2ccc(C#Cc3cccc(F)c3)cn2)no1)N1CCCC1` (centres unmarked) [Compound 108, 3-(5-((3-fluorophenyl)ethynyl)pyridin-2-yl)-5-(1-(pyrrolidin-1-yl)ethyl)-1,2,4-oxadiazole] came in with a concentration for a half-maximal effect (EC50) of no more than 30 nM.
The value for `CCC(C)c1nc(-c2ccc(C#Cc3ccncc3)nc2)no1` (centres unmarked) [Compound 90, 5-(sec-butyl)-3-(6-(pyridin-4-ylethynyl)pyridin-3-yl)-1,2,4-oxadiazole] was no more than 30 nM; that for `CN1CCCC1c1nc(-c2ccc(C#Cc3ccccn3)cc2)no1` (centres unmarked) [Compound 70, 5-(1-methylpyrrolidin-2-yl)-3-(4-(pyridin-2-ylethynyl)phenyl)-1,2,4-oxadiazole] was no more than 30 nM; that for `C(#Cc1ccc(-c2noc(C3CCCN3)n2)cc1)c1ccncc1` (centres unmarked) [Compound 77, 3-(4-(pyridin-4-ylethynyl)phenyl)-5-(pyrrolidin-2-yl)-1,2,4-oxadiazole] was 100 to 300 nM.
The value for `CN1CCCC1c1nc(-c2ccc(C#Cc3ccncc3)cc2)no1` (centres unmarked) [Compound 78, 5-(1-methylpyrrolidin-2-yl)-3-(4-(pyridin-4-ylethynyl)phenyl)-1,2,4-oxadiazole] was no more than 30 nM.
In turn, `Fc1cccc(C#Cc2ccc(-c3noc(C4CCCN4)n3)nc2)c1` (stereo in doubt) [Compound 121, (S)-3-(5-((3-fluorophenyl)ethynyl)pyridin-2-yl)-5-(pyrrolidin-2-yl)-1,2,4-oxadiazole] returned an EC50 of 300 to 1000 nM.
Take `CN(C)C1(c2nc(-c3ccc(C#Cc4cccc(F)c4)cn3)no2)CC1` [Compound 118, 1-(3-(5-((3-fluorophenyl)ethynyl)pyridin-2-yl)-1,2,4-oxadiazol-5-yl)-N,N-dimethylcyclopropanamine]: the concentration for a half-maximal effect (EC50) is no more than 30 nM.
The value for `COC(C)c1nc(-c2ccc(C#Cc3ccncc3)nc2)no1` (centres unmarked) [Compound 92, 5-(1-methoxyethyl)-3-(6-(pyridin-4-ylethynyl)pyridin-3-yl)-1,2,4-oxadiazole] was 100 to 300 nM; that for `CCC(OC)c1nc(-c2ccc(C#Cc3ccncc3)nc2)no1` (centres unmarked) [Compound 93] was 30 to 100 nM; that for `CC1(c2nc(-c3ccc(C#Cc4cccc(F)c4)cn3)no2)CCCN1` (centres unmarked) [Compound 122, 3-(5-((3-fluorophenyl)ethynyl)pyridin-2-yl)-5-(2-methylpyrrolidin-2-yl)-1,2,4-oxadiazole] was 100 to 300 nM.
In the case of `CCC(CC)c1nc(-c2ccc(C#Cc3ccncc3)cn2)no1` [Compound 160, 5-(pentan-3-yl)-3-(5-(pyridin-4-ylethynyl)pyridin-2-yl)-1,2,4-oxadiazole], the half-maximal effective concentration (EC50) is 30 to 100 nM.
